“Also recorded” adds a separate entry of the source.
Columns and labels:
[1] = tested on: formalin-induced tonic inflammatory nociceptive behaviour; assay: Formalin test, rat (weighted behavioural scoring); type: in vivo; conditions: for Weighted pain score: score 0-3, ±SEM; for effect on formalin-induced nociceptive behaviour (in words): i.p. just prior to formalin, 5-40 mg/kg, late phase
Experimental: The formalin test is a chemically-induced tonic pain model in which biphasic changes of nociceptive behaviour are assessed and spinal/supraspinal plasticity of nociception is considered as a molecular basis for neuropathic pain particularly during the second (=late) phase of the test, during which most clinically used drugs against neuropathic pain are active.
The compound was tested for anti-nociceptive properties by use of the weighted behavioural scoring method: Freely moving animals underwent observational assessment of the position of the left hind paw according to a rating score scaled 0-3 before and 10, 20, 30 and 40 min after injection of 0.05 ml of sterile 2.5% formalin under the skin on the dorsal surface of the paw.

[2] = tested on: spontaneous pain induced by unilateral chronic constriction injury; assay: Chronic constriction injury (CCI, Bennett model): spontaneous pain; type: in vivo, rat; conditions: for Spontaneous nociception, weighted pain score, Post-op + Drug: ligated paw, score 0-5, ±SEM
Experimental: (§1) The effectiveness of harkoseride in reducing spontaneous chronic pain, mechanical allodynia, and thermal hyperalgesia was tested using the chronic constriction injury (CCI) model of peripheral neuropathy, one of the best characterised in vivo animal models used to study chronic pain due to peripheral nerve injury. In this model, loose ligatures are placed around the sciatic nerve, which produces axonal swelling and a partial deafferentation manifested as a significant but incomplete loss of axons in the distal portion of the peripheral nerve. One of the prominent behaviours seen following sciatic nerve ligation is the appearance of hind paw guarding, thought to be an indication of an ongoing spontaneous chronic pain. Support for this idea is derived from reports of increased spinal cord neural activity, and increased spontaneous neuronal discharge in spinothalamic tract neurons and in the ventrobasal thalamus in the absence of overt peripheral stimulation. In addition to the appearance of spontaneous pain behaviours, several abnormalities in stimulus evoked pain occur as a result of CCI, including thermal hyperalgesia and mechanical allodynia. The development of these abnormal stimulus-evoked pains has also been reported as occurring in areas outside the territory of the damaged nerve, areas innervated by uninjured nerves.
(§2) Behavioural tests for spontaneous pain, thermal hyperalgesia, and mechanical allodynia were conducted to evaluate different components of neuropathic pain. Baseline data for each test was collected prior to any experimental procedure; in addition, all animals were tested for the development of chronic pain behaviours 13-25 days after CCI surgery 1 day prior to the day of vehicle (0.04 ml sterile water/10 g body weight) or drug administration and after vehicle/drug administration. The sequence of the tests was (1) spontaneous pain-related behaviour (2) mechanical allodynia, (3) thermal hyperalgesia in order to minimise the influence of one test on the result of the next. The testing procedures and results are presented separately for each aspect of chronic pain. Either 0 (vehicle, 0.04 ml/10 g body weight), 5, 10, 20 or 40 mg/kg of SPM 927 (n=7-23/group) was administered i.p. 15 minutes before the first behavioural test.
Spontaneous pain (ongoing pain without an apparent external stimulus) of the ligated paw was assessed for 5 min following a 10 min acclimation period by use of a rating score (weighted behaviour score scaled 0-5).

[3] = tested on: chronic constriction injury-induced thermal hyperalgesia; assay: CCI model: thermal hyperalgesia (radiant heat withdrawal latency); type: in vivo, rat; conditions: for Thermal hyperalgesia, withdrawal latency, Post-op + Drug: ligated hind paw, ±SEM
Experimental: as §1, §2
Thermal hyperalgesia was assessed by means of withdrawal latency in response to radiant heat applied to the subplantar surface of the ligated rat hind paw. As compared to the baseline latency (s), a significant decrease in the (postoperative) latency of foot withdrawal in response to the thermal stimulus was interpreted as indicating the presence of thermal hyperalgesia following chronic constriction injury.

[4] = tested on: mechanical allodynia induced by unilateral nerve ligation; assay: CCI model: mechanical allodynia (electronic Von Frey); type: in vivo, rat; conditions: for Mechanical allodynia, pressure to elicit foot withdrawal, Post-op + Drug: ligated hind paw, ±SEM
Experimental: as §1, §2
Mechanical sensitivity and allodynia of the ligated rat hind paw was quantified by brisk foot withdrawal in response to normally innocuous mechanical stimuli as described previously. Responsiveness to mechanical stimuli was tested with a calibrated electronic Von Frey pressure algometer connected to an online computerised data collection system. A significant decrease in the post operative compared to baseline pressure (g/mm^2) necessary to elicit a brisk foot withdrawal in response to this mechanical stimulus is interpreted as mechanical allodynia.

[5] = tested on: acute spinal thermal nociception; assay: Tail flick test, rat; type: in vivo; conditions: for Anti-nociceptive effect: ±SEM
Text: Harkoseride was additionally tested for potential activity in acute spinal thermal nociception using the tail flick test. In this model of acute thermal spinal/reflex hyperalgesia radiant heat is applied to the animal's tail approximately 2 cm from the tip and time latency for withdrawal reaction is automatically assessed by an algometer, a defined maximal stimulus time prevents tissue damage. This test is widely used as an assay for the anti-nociceptive efficacy of pharmacological agents and is highly predictive of acute analgesic efficacy in humans.
Results for 20 and 40 mg/kg harkoseride i.p are shown in table 5 [percent anti-nociception, calculated as [{(post-drug latency)−(pre-drug-latency)}/{(max. latency)−(pre-drug latency)}×100]±SEM, n=12/group]. A baseline or pre-drug tail-flick latency was determined by averaging 5 consecutive measurements taken 2 minutes apart. Vehicle (sterile water 0.04 ml/10 g body weight) or harkoseride were then administered and tail flick latencies recorded at 10-minute intervals for the next 60 minutes.

[6] = tested on: neuropathic pain (CHUNG), tactile stimulation; assay: Neuropathic pain (CHUNG) test, tactile stimulation on lesioned paw; type: in vivo, rat; conditions: for FORCE INDUCING PAW-WITHDRAWAL, % change: compared with lesioned control; for FORCE INDUCING PAW-WITHDRAWAL, mean ± s.e.m.: lesioned paw
Text: The following Tables 8 and 9 show the effects of harkoseride (hereinafter referred tows SPM 927), carbamazepine, levetiracetam, gabapentin and morphine in the neuropathic pain (CHUNG) test in the rat. Eight (8) rats per group were used.

COC[C@@H](NC(C)=O)C(=O)NCc1ccccc1 [SPM 927, (R)-2-Acetamido-N-benzyl-3-methoxypropionamide]
Weighted pain score ([1]; 5 mg/kg i.p., 10 min after formalin): 0.31 ± 0.11 | Weighted pain score ([1]; 5 mg/kg i.p., 20 min after formalin): 0.78 ± 0.23 | Weighted pain score ([1]; 5 mg/kg i.p., 30 min after formalin): 1.47 ± 0.20 | Weighted pain score ([1]; 5 mg/kg i.p., 40 min after formalin): 1.46 ± 0.19 | Weighted pain score ([1]; 10 mg/kg i.p., 10 min after formalin): 0.42 ± 0.17 | Weighted pain score ([1]; 10 mg/kg i.p., 20 min after formalin): 0.33 ± 0.16 | Weighted pain score ([1]; 10 mg/kg i.p., 30 min after formalin): 1.02 ± 0.27 | Weighted pain score ([1]; 10 mg/kg i.p., 40 min after formalin): 1.05 ± 0.19 | Weighted pain score ([1]; 20 mg/kg i.p., 10 min after formalin): 0.48 ± 0.18 | Weighted pain score ([1]; 20 mg/kg i.p., 20 min after formalin): 0.57 ± 0.14 | Weighted pain score ([1]; 20 mg/kg i.p., 30 min after formalin): 0.78 ± 0.18 | Weighted pain score ([1]; 20 mg/kg i.p., 40 min after formalin): 1.02 ± 0.24 | Weighted pain score ([1]; 40 mg/kg i.p., 10 min after formalin): 0.12 ± 0.05 | Weighted pain score ([1]; 40 mg/kg i.p., 20 min after formalin): 0.10 ± 0.04 | Weighted pain score ([1]; 40 mg/kg i.p., 30 min after formalin): 0.09 ± 0.06 | Weighted pain score ([1]; 40 mg/kg i.p., 40 min after formalin): 0.12 ± 0.06 | effect on formalin-induced nociceptive behaviour (in words) ([1]; listed as Harkoseride): dose dependant reduction | effect on formalin-induced nociceptive behaviour (in words) ([1]; listed as harkoseride): Significant and dose dependent efficacy | Spontaneous nociception, weighted pain score, Post-op + Drug ([2]; 5 mg/kg i.p.): 1.8 ± 0.18 | Spontaneous nociception, weighted pain score, Post-op + Drug ([2]; 10 mg/kg i.p.): 1.5 ± 0.11 | Spontaneous nociception, weighted pain score, Post-op + Drug ([2]; 20 mg/kg i.p.): 0.9 ± 0.14 | Spontaneous nociception, weighted pain score, Post-op + Drug ([2]; 40 mg/kg i.p.): 0.8 ± 0.28 | effect on level of spontaneous pain (in words) ([2]; 5-40 mg/kg i.p.): did not change | Thermal hyperalgesia, withdrawal latency, Post-op + Drug ([3]; 5 mg/kg i.p.): 9.2 ± 0.98 s | Thermal hyperalgesia, withdrawal latency, Post-op + Drug ([3]; 10 mg/kg i.p.): 8.1 ± 0.59 s | Thermal hyperalgesia, withdrawal latency, Post-op + Drug ([3]; 20 mg/kg i.p.): 9.7 ± 0.96 s | Thermal hyperalgesia, withdrawal latency, Post-op + Drug ([3]; 40 mg/kg i.p.): 10.2 ± 0.75 s | effect on thermal hyperalgesia (in words) ([3]; 5-40 mg/kg i.p.): dose dependently reduced | dose at which the maximum effect on thermal hyperalgesia is seen ([3]; i.p.): 20 mg/kg | Mechanical allodynia, pressure to elicit foot withdrawal, Post-op + Drug ([4]; 5 mg/kg i.p.): 21.8 ± 2.34 g/mm^2 | Mechanical allodynia, pressure to elicit foot withdrawal, Post-op + Drug ([4]; 10 mg/kg i.p.): 29.2 ± 2.85 g/mm^2 | Mechanical allodynia, pressure to elicit foot withdrawal, Post-op + Drug ([4]; 20 mg/kg i.p.): 39.6 ± 3.62 g/mm^2 | Mechanical allodynia, pressure to elicit foot withdrawal, Post-op + Drug ([4]; 40 mg/kg i.p.): 43.0 ± 5.48 g/mm^2 | effect on intensity of mechanical allodynia (in words) ([4]; 5-40 mg/kg i.p.): dose dependently reduced | Anti-nociceptive effect ([5]; 20 mg/kg i.p., 10 min after drug): 5.0 ± 3.94% | Anti-nociceptive effect ([5]; 20 mg/kg i.p., 20 min after drug): 9.7 ± 7.51% | Anti-nociceptive effect ([5]; 20 mg/kg i.p., 30 min after drug): 9.7 ± 2.37% | Anti-nociceptive effect ([5]; 20 mg/kg i.p., 40 min after drug): 1.7 ± 7.42% | Anti-nociceptive effect ([5]; 20 mg/kg i.p., 50 min after drug): 5.4 ± 4.12% | Anti-nociceptive effect ([5]; 20 mg/kg i.p., 60 min after drug): 8.1 ± 5.20% | Anti-nociceptive effect ([5]; 40 mg/kg i.p., 10 min after drug): −1.6 ± 12.82% | Anti-nociceptive effect ([5]; 40 mg/kg i.p., 20 min after drug): −4.3 ± 14.04% | Anti-nociceptive effect ([5]; 40 mg/kg i.p., 30 min after drug): −2.3 ± 9.14% | Anti-nociceptive effect ([5]; 40 mg/kg i.p., 40 min after drug): −4.4 ± 11.44% | Anti-nociceptive effect ([5]; 40 mg/kg i.p., 50 min after drug): 0.3 ± 15.50% | Anti-nociceptive effect ([5]; 40 mg/kg i.p., 60 min after drug): −5.5 ± 14.11% | effect in the tail flick test (in words) ([5]; 20 and 40 mg/kg i.p., listed as harkoseride): negative results; also recorded: little or no effect; also recorded: no anti-nociceptive effect | FORCE INDUCING PAW-WITHDRAWAL, % change ([6]; 8 mg/kg i.p. -30 min): +56% (b) | FORCE INDUCING PAW-WITHDRAWAL, mean ± s.e.m. ([6]; 8 mg/kg i.p. -30 min): 27.2 ± 4.9 NS (b) g | FORCE INDUCING PAW-WITHDRAWAL, % change ([6]; 16 mg/kg i.p. -30 min): +40% (b) | FORCE INDUCING PAW-WITHDRAWAL, mean ± s.e.m. ([6]; 16 mg/kg i.p. -30 min): 24.4 ± 3.0 NS (b) g | FORCE INDUCING PAW-WITHDRAWAL, % change ([6]; 32 mg/kg i.p. -30 min): +116% (b) | FORCE INDUCING PAW-WITHDRAWAL, mean ± s.e.m. ([6]; 32 mg/kg i.p. -30 min): 37.6 ± 6.1 (b) g | comparison of effects in the CHUNG test (in words) ([6]; tactile and thermal stimulation, i.p.): minimum comparable, but usually more potent than the reference compounds

— US20100099770A1, “METHOD FOR TREATING DIABETIC PERIPHERAL NEUROPATHIC PAIN” (SCHWARZ PHARMA AG, priority 2001, published 2010)
